Measured values published in publication PMC7362394 (Bioorganic & medicinal chemistry letters, 2019).

Legend:
[1] = system: 85 serine hydrolases; settings: 5 nM-33 μM
[2] = system: panel of mammalian cell lines; settings: concentrations up to 100 μM
[3] = molecular target: T1, epithelial sodium channels (ENaCs) (Homo sapiens, UniProt P37088+P51168+P51170); settings: compounds at 10 μM, n = 4
T1 sequence (P37088 1-669): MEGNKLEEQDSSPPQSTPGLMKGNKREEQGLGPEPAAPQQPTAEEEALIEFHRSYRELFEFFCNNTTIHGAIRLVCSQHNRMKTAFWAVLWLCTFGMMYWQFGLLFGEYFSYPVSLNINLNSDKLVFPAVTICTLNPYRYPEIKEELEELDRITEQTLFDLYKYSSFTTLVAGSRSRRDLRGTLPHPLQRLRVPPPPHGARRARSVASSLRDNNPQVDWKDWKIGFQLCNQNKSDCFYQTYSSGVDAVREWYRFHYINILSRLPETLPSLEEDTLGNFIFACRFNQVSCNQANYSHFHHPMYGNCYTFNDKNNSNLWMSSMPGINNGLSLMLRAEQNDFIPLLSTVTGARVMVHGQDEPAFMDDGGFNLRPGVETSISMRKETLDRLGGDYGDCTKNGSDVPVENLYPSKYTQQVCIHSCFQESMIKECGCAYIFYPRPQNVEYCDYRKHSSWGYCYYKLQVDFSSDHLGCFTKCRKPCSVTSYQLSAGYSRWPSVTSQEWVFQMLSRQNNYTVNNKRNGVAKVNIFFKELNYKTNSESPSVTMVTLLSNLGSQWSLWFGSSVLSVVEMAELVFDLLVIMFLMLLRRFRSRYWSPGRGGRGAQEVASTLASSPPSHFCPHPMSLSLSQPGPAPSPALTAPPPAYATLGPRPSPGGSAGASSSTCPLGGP
T1 sequence (P51168 1-640): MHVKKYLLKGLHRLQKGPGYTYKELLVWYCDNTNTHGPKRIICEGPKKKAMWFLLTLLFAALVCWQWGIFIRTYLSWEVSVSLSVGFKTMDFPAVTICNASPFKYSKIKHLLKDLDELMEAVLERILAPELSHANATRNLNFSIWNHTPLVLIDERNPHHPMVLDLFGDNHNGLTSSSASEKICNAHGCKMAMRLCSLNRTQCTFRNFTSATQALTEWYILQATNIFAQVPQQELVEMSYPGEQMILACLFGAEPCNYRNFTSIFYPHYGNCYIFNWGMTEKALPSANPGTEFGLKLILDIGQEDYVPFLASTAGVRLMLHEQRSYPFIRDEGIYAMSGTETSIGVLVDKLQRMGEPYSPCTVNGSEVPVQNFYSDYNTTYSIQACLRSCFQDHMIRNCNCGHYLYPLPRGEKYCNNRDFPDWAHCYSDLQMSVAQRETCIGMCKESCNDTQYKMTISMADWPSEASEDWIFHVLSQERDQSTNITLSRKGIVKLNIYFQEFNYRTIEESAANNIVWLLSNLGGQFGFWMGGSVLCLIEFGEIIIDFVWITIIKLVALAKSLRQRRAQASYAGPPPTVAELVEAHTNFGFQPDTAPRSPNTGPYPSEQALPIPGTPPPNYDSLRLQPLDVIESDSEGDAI
T1 sequence (P51170 1-649): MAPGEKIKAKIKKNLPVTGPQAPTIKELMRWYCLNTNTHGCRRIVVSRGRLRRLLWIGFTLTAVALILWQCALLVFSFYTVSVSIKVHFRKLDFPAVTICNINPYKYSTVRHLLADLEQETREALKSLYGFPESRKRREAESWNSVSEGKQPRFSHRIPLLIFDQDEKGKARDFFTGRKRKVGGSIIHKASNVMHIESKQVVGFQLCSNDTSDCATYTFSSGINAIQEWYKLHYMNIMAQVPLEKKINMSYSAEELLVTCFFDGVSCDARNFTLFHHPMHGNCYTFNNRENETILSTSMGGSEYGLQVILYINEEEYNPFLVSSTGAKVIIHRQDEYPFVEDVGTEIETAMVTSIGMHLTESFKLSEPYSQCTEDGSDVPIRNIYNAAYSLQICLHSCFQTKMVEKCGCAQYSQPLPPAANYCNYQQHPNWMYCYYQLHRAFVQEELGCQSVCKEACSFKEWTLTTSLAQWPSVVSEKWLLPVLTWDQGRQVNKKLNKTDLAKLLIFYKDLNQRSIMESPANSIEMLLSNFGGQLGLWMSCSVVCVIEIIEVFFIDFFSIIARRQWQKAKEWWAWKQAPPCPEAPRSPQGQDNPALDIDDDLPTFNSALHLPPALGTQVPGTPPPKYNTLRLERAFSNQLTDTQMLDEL

[4] = system: Sprague Dawley rats; settings: 25 mg/kg acetazolamide IV then 1.5 mg/kg compound IP, n = 8
[5] = molecular target: T2, uPA (Homo sapiens, UniProt P00749)
[6] = molecular target: T2, uPA; settings: read-out: uPA Ki; value taken from earlier paper; cited from earlier work

| uPA potency relative to amiloride (in words) [5] | fold increase in uPA activity relative to amiloride ([5]; from Ki values) | SMILES | other results |
| --- | --- | --- | --- |
| – | – | COc1ncc(-c2nc(C(=O)NC(=N)N)c(N)nc2N)cn1 [Compound 7] | inhibition of serine hydrolases in EnPlex assay (in words) [1]: High uPA selectivity; cytotoxicity across the cell line panel (in words) [2]: much less toxic; ENaC activity (in words) [3]: Complete loss of ENaC activity; effect on Na+/K+ excretion / solute concentrations (in words) [4]: no significant effect; effect on diuresis (in words) [4]: no significant effect |
| – | – | N=C(N)NC(=O)c1nc(-c2cc3cc(Br)ccc3o2)c(N)nc1N [Compound 19] | fold decrease in uPA activity relative to amiloride ([5]; from Ki values): 1.5 fold; fold loss of uPA activity relative to 15 ([5]; from Ki values): ~ 12 fold |
| only a modest increase in activity | – | COc1ncc(-c2nc(C(=O)NC(=N)N)c(N)nc2N)c(OC)n1 [Compound 8] | – |
| – | – | N=C(N)NC(=O)c1nc(-c2ccc3occc3c2)c(N)nc1N [Compound 23] | uPA potency relative to 15 (in words) [5]: only a small decrease in potency |
| did not improve potency | – | N=C(N)NC(=O)c1nc(-c2ccc(C(F)(F)F)cc2)c(N)nc1N [Compound 5] | – |
| – | – | COc1ncc(-c2nc(C(=O)NC(=N)N)c(N)nc2N2CCCCCC2)c(OC)n1 [6-(2,4-dimethoxypyrimidin-5-yl)-5-(N,N-hexamethylene) amiloride] | Ki [6]: 0.042 µM |
| – | 2 fold | COc1ccc(-c2nc(C(=O)NC(=N)N)c(N)nc2N)c(OC)n1 [Compound 9] | – |
| did not improve potency | – | CSc1ccc(-c2nc(C(=O)NC(=N)N)c(N)nc2N)cc1 [Compound 4] | – |
| did not improve potency | – | N=C(N)NC(=O)c1nc(-c2ccccc2)c(N)nc1N [Compound 3] | – |
| slight increase | – | N=C(N)NC(=O)c1nc(-c2ccc3c(c2)CCO3)c(N)nc1N [Compound 24] | – |
| – | 3.3 fold | N=C(N)NC(=O)c1nc(-c2ccco2)c(N)nc1N [Compound 11] | – |
| – | 1.7 fold | N=C(N)NC(=O)c1nc(-c2cc3ccccc3s2)c(N)nc1N [Compound 14] | – |
| – | 2 fold | N=C(N)NC(=O)c1nc(-c2cccs2)c(N)nc1N [Compound 10] | – |
